Test results published in US7138543B2, “Thiolalkyl benzoic acid derivatives” (Guilford Pharmaceuticals Inc., priority 2001, dated 2006).

Assays:
Assay type in all cases: in vivo
BB/W diabetic rats = assay: Nerve conduction velocity in BB/W model; settings: 10 mg/kg daily; vs diabetic vehicle controls, from 8 weeks to six months, FIG. 12
From the text: Male BB/W rats (BRI, Mass) spontaneously develop a cell mediated autoimmune destruction of pancreatic B cells, resulting in onset of insulin-dependent (Type I) diabetes (Awata, Guberski, Endocrinology (1995) 136(12):5731–5). […] This renders them valuable for experimental trials of new compounds for future treatments of this major disorder. In the present study, Compound A and Compound D were examined for their ability to alter the progression of diabetic neuropathy. The rats received daily injection of Compound A or Compound D (10 mg/kg i.p.) or vehicle, starting at the onset of diabetes (hyperglycemia) and up to 6 months thereafter. Another group of non-diabetic rats also receiving vehicle were tested. All animals were continuously monitored for body weight, urine volume, blood sugar and glycated haemoglobin. In the first month of the study, all animals were tested for thermal nociception in a Hargreaves apparatus, weekly. After the first month this was done biweekly and then monthly. […]
Nerve conduction velocity was also measured every two weeks through the first eight weeks of treatment and every month thereafter through to the six months of treatment (see De Koning et al., Peptides, Vol. 8, No. 3, pp. 415–22 (1987) for a description of the experimental method). […]

STZ-diabetic rats = assay: Diabetic neuropathy in STZ model (motor and sensory nerve conduction velocity)
Method: In vivo Assay of NAALADase Inhibitors on Diabetic Neuropathy in STZ Model
Motor and sensory nerve conduction velocity was also measured in STZ-diabetic animals after 4, 8 and 12 weeks of treatment (see De Koning et al., supra, for a description of the experimental method). Briefly, stimulating needle electrodes were inserted close to the sciatic and tibial nerves with recording electrodes being placed subcutaneously over the distal foot muscles, in anesthetized rats.

transgenic G1H mice = assay: Onset of ALS in transgenic mice model of FALS; settings: for DISEASE ONSET: 50 mg/kg daily intraperitoneal
Method: Effect of NAALADase Inhibitors on Onset of ALS
The effect of NAALADase inhibitors on the onset of ALS was tested using the transgenic mice model of familial amyotrophic lateral sclerosis (“FALS”), which is detailed in Gurney, M., Annals of Neurology (1996) 39:147–157, and otherwise well known in the art. One month old transgenic G1H mice were treated with daily intraperitoneal injections of a vehicle (50 mM HEPES-buffered saline) or a NAALADase inhibitor (50 mg/kg Compound A). Clinical symptoms of the mice were monitored daily. The onset of clinical disease was scored by examining each mouse for its shaking of limbs when suspended in the air by its tail, cross spread of spinal reflexes, hindlimb paralysis, body weight and wheel running activity.

[1] = tested on: rats with unilateral elevation of intraocular pressure; assay: Experimental rat glaucoma (IOP elevation, optic nerve fiber counting); settings: 8 week group
Method: Protective Effect of NAALADase Inhibitors in Experimental Rat Glaucoma
All experiments complied with the Association for Research in Vision and Ophthalmology Statement for the Use of Animals in Ophthalmic and Vision Research. 82 male Brown Norway rats (Rattus norvegicus), each weighing approximately 250 gm, were treated using procedures approved by the Animal Care Committee of the Johns Hopkins University School of Medicine. The rats were housed with a 12 hour light/12 hour dark cycle and fed ad libitum.
EXPERIMENTAL GLAUCOMA: Unilateral elevation of intraocular pressure (“IOP”) was produced in 56 rats by microinjection of hypertonic saline into episcleral veins, following procedures described in Morrison, J. et al., IOVS (March 1998) 39:526–531. Beginning on the day of IOP elevation, the rats were treated daily with intraperitoneal injections of either a vehicle (23 rats with 50 mM HEPES-buffered saline) or a NAALADase inhibitor (11 rats with 10 mg/kg of Compound A and 22 rats with 10 mg/kg of Compound B). 11 saline treated rats, 11 Compound A treated rats and 11 Compound B treated rats were sacrificed at 8 weeks, and the remaining rats at 12 weeks, after initial IOP elevation.
OPTIC NERVE COUNTING: The rats were sacrificed by exsanguination under deep pentobarbital anesthesia. They were perfused through the heart with 2% paraformaldehyde/2% glutaraldehyde in 0.1 M phosphate buffer, pH 7.2, and the eyes with attached optic nerves were removed. A cross-section of the optic nerve from both experimental (glaucoma or transection) and control eyes was removed 1.5 mm posterior to the globe, 1 mm in thickness, and post-fixed in 2% osmium tetroxide in buffer. These were processed into epoxy resin, sectioned at 1 micron and stained with toluidine blue.
The area of the optic nerve cross-section was measured by outlining its outer border at 10× magnification on an image analysis system (Universal Imaging Corp., Westchester, Pa.) with Synsys digital camera and Metamorph software. Three area measurements were taken and the mean value was determined. To measure the density and fiber diameter distributions, images were captured with a 100× phase contrast objective from 10 different areas of each nerve. These were edited to eliminate non-neural objects and the size of each axon internal to the myelin sheath (its minimum diameter) and the density of axons/square mm were calculated for each image and nerve. The mean density was multiplied by total nerve area to yield fiber number for each nerve. The total fiber number in glaucoma or transection nerves was compared to the normal, fellow eye of each rat to yield a percent loss value. The number of axons counted among the 10 images was an approximately 20% sample of the 80–90,000 axons in normal rat nerves. The person measuring axon number was masked to the protocol conducted on the nerves.

**Q.** What does the source list for `O=C(O)CCC(CP(=O)(O)Cc1c(F)c(F)c(F)c(F)c1F)C(=O)O` (stereo not shown) [Compound A]?
**A.** nerve conduction velocity (BB/W diabetic rats): significantly less severe nerve conduction deficits; motor and sensory nerve conduction velocities (STZ-diabetic rats; 10 mg/kg daily for 4, 8 and 12 weeks, FIGS. 9A and 9B): tended to improve (increase) both motor and sensory nerve conduction velocities; treatment time at which significant improvement of motor nerve conduction velocity was observed (STZ-diabetic rats; 10 mg/kg daily, FIG. 9A): 12 weeks; treatment time at which significant improvement of sensory nerve conduction velocity was observed (STZ-diabetic rats; 10 mg/kg daily, FIG. 9B): 8 weeks; DIFFERENCE in disease onset vs vehicle (transgenic G1H mice; Study 1): 32; DISEASE ONSET (transgenic G1H mice; Study 1): 221 days; DIFFERENCE in disease onset vs vehicle (transgenic G1H mice; Study 2): 25; DISEASE ONSET (transgenic G1H mice; Study 2): 166 days; FIBER NUMBER ([1]; 10 mg/kg daily intraperitoneal): 79156 ± 2436; PERCENT DIFFERENCE in fiber number between glaucoma and normal eye ([1]; positive value indicates fewer fibers in the glaucoma eye): −1.82 ± 2.92%
